Measured values taken from ChEMBL document CHEMBL1143461, “Trifluoroethylamines as amide isosteres in inhibitors of cathepsin K” (Bioorg Med Chem Lett, 2005).

How the values were obtained:
Cathepsin K [1] = biological target: T1, Cathepsin K (Homo sapiens, UniProt P43235); assay: Inhibitory activity against cathepsin K using humanized rabbit enzyme; parameters: species or system Oryctolagus cuniculus
[2] = biological target: T2, Cathepsin K (Homo sapiens) (UniProt P43235); assay: pKa value determined against cathepsin K from humanized rabbit enzyme; conditions: Oryctolagus cuniculus
T2 sequence (whole entry): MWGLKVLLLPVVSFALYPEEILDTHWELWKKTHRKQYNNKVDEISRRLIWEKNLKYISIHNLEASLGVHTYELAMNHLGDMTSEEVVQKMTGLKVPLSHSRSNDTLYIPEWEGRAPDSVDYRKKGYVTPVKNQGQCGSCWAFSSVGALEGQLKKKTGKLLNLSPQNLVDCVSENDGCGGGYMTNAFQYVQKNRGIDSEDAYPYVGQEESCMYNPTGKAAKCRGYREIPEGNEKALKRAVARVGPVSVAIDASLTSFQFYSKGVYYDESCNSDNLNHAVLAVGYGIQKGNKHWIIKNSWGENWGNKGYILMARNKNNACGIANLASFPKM

Cathepsin B = Cathepsin B (Homo sapiens, UniProt P07858); assay: Inhibitory activity against cathepsin B from human
Procathepsin L = Procathepsin L (Homo sapiens, UniProt P07711); assay: Inhibitory activity against cathepsin L from human
Cathepsin S = Cathepsin S (Homo sapiens, UniProt P25774); assay: Inhibitory activity against cathepsin S from human
Cathepsin K [3] = biological target: T1, Cathepsin K; assay: Inhibitory activity against cathepsin K (10 pM) using humanized rabbit enzyme; parameters: species or system Oryctolagus cuniculus
Cathepsin K [4] = biological target: T1, Cathepsin K; assay: Inhibitory activity against cathepsin K from humanized rabbit enzyme; parameters: species or system Oryctolagus cuniculus

Procathepsin L, sequence (P07711 whole entry): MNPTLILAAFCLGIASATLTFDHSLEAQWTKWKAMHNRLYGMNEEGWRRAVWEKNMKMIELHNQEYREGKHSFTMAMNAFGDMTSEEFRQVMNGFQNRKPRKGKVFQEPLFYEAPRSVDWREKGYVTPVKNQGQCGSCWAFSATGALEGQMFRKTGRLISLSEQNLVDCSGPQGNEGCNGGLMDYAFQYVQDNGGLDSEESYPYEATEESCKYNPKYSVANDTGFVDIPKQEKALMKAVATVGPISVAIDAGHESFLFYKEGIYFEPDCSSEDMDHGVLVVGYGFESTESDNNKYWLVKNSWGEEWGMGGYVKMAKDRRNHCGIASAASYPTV
Cathepsin S, sequence (P25774 whole entry): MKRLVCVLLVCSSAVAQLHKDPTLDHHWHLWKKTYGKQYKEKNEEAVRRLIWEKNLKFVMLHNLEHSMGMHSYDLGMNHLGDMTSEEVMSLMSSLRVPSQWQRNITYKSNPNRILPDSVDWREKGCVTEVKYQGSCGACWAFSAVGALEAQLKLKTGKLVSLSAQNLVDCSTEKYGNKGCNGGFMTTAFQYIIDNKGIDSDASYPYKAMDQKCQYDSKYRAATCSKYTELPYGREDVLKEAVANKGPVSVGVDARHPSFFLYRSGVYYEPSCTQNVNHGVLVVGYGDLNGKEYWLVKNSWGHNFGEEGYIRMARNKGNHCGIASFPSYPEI

SMILES | IC50 (Cathepsin K [1]) [nM] | pKa [2] | IC50 (Cathepsin B) [nM] | IC50 (Procathepsin L) [nM] | IC50 (Cathepsin S) [nM] | IC50 (Cathepsin K [3]) [nM] | IC50 (Cathepsin K [4]) [nM]
CC(C)C[C@H](NC(C)c1ccc(Br)cc1)C(=O)NCC#N (stereo partly drawn) | 988 | 6.7 |  |  |  |  | 
CC(C)C[C@H](NCc1ccc(Br)cc1)C(=O)NCC#N | 802 | 6.7 |  |  |  |  | 
CC(C)C[C@H](NC(c1ccc(Br)cc1)c1ccc(S(C)(=O)=O)cc1)C(=O)NCC#N (stereo partly drawn) | 2.5 | 4.6 |  |  |  |  | 
CC(C)C[C@H](N[C@@H](c1ccc(-c2ccc(N3CCNCC3)cc2)cc1)C(F)(F)F)C(=O)NCC#N |  |  | 1110 | 47 | 451 | ≤ 0.005 | 
CC(C)C[C@@H](C(=O)NCC#N)c1cccc(-c2ccc(N3CCNCC3)cc2)c1 | 11 |  |  |  |  |  | 
CN1CCN(c2nc(-c3ccc(C(=O)NC4(C(=O)NCC#N)CCCCC4)cc3)cs2)CC1 | 0.6 |  | 1050 | 3900 | > 10000 |  | 
CC(C)C[C@H](Nc1cscc1-c1ccc(N2CCNCC2)cc1)C(=O)NCC#N | 1 |  |  |  |  |  | 
CC(C)C[C@H](NC(c1ccc(Br)cc1)C(F)(F)F)C(=O)NCC#N (stereo partly drawn) | 1.3 | 1.3 | 3350 | 34 | 121 |  | 0.9
N#CCNC(=O)C1(NC(=O)c2ccc(-c3ccc(N4CCNCC4)cc3)cc2)CCCCC1 | 0.4 |  | 614 | 2270 | > 10000 |  | 
N#CCNC(=O)C1(NC(c2ccc(-c3ccc(N4CCNCC4)cc3)cc2)C(F)(F)F)CCCCC1 (stereo not drawn) | 5 |  | > 10000 | > 10000 | > 10000 |  | 
CC(C)CC(NC(c1ccc(-c2ccc(N3CCNCC3)cc2)cc1)C(F)(F)F)C(=O)NCC#N (stereo not drawn) | 4.6 |  | > 10000 | 68 | 902 |  | 
CC(C)C[C@H](NC(c1ccc(Br)cc1)C(F)(F)C(F)(F)F)C(=O)NCC#N (stereo partly drawn) | 2.4 | 1.8 |  |  |  |  | 
CC(C)C[C@H](NC(C#N)c1ccc(Br)cc1)C(=O)NCC#N (stereo partly drawn) | 30 | 0.7 |  |  |  |  | 
